Tests used:
Assay type in all cases: in vivo
Septoria tritici = experiment: Test A: wheat leaf blotch, preventive spray on wheat seedlings; details: 50 ppm, 100 = 100% disease control, 0 = no control relative to controls; for pest or weed control at 50 ppm: Zymoseptoria tritici, read-out: Test A disease control rating (wheat leaf blotch)
Procedure, shortened: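 Compounds were suspended in acetone/water (50/50) with 250 ppm PEG400 and sprayed to run-off on wheat seedlings. The next day the seedlings were inoculated with Septoria tritici spores, held 48 h at 24 °C in saturated humidity, then 17 days at 20 °C. Disease control was rated 0–100 relative to controls.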

[1] = tested on: Puccinia recondita f. sp. tritici; experiment: Test B: wheat leaf rust, preventive spray on wheat seedlings; details: 50 ppm, 100 = 100% disease control, 0 = no control relative to controls; for pest or weed control at 50 ppm: read-out: Test B disease control rating (wheat leaf rust)
Procedure, shortened: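 Compounds in acetone/water (50/50) with 250 ppm PEG400, sprayed to run-off on wheat seedlings at stated ppm; inoculated next day with P. recondita spores. Held 24 h saturated at 20° C., then 7 days in growth chamber at 20° C.; rating 0–100 = % disease control vs controls.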

[2] = tested on: Blumeria graminis f. sp. tritici; experiment: Test C: wheat powdery mildew, preventive spray on wheat seedlings; details: 50 ppm, rated after 8 days, 100 = 100% disease control, 0 = no control; for pest or weed control at 50 ppm: Blumeria graminis, 192 h, read-out: Test C disease control rating (wheat powdery mildew)
Procedure, shortened: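 Compound dissolved in acetone (3% of final volume), then suspended in 50/50 acetone/water with 250 ppm PEG400 and sprayed to run-off on wheat seedlings. Inoculated next day with B. graminis f. sp. tritici spore dust, kept 8 days at 20° C; visual rating, 100 = full control, 0 = none, relative to controls.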

Phakopsora pachyrhizi = experiment: Test D: Asian soybean rust, preventive spray on soybean seedlings; details: 50 ppm, 100 = 100% disease control, 0 = no control; for pest or weed control at 50 ppm: Phakopsora pachyrhizi, read-out: Test D disease control rating (Asian soybean rust)
Procedure, shortened: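 Soybean seedlings sprayed to run-off with compound suspension (ppm, in 50/50 acetone/water with 250 ppm PEG400), inoculated next day with P. pachyrhizi spores, held 24 h saturated at 22°C then 8 days at 22°C. Visual rating 0-100% disease control relative to controls.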

Botrytis cinerea = experiment: Test E: tomato Botrytis, preventive spray on tomato seedlings; details: 50 ppm, 100 = 100% disease control, 0 = no control; for pest or weed control at 50 ppm: Botrytis cinerea, read-out: Test E disease control rating (tomato Botrytis)
Procedure, shortened: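 Tomato seedlings sprayed to run-off with compound (ppm) in acetone/water with 250 ppm PEG400, then inoculated next day with B. cinerea spores. Held 48 h at 20 °C in saturated atmosphere, then 3 days at 24 °C. Visual rating 0–100% disease control relative to untreated controls.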

Alternaria solani = experiment: Test F: tomato early blight, preventive spray on tomato seedlings; details: 50 ppm, 100 = 100% disease control, 0 = no control; for pest or weed control at 50 ppm: Alternaria solani, read-out: Test F disease control rating (tomato early blight)
Procedure, shortened: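 Compounds in acetone/water (50/50) with 250 ppm PEG400, dosed in ppm, sprayed to run-off on tomato seedlings; next day inoculated with A. solani spores. Held 48 h saturated at 27° C, then 3 days at 20° C; visual rating 0–100% disease control relative to controls.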

Cc1nn(C)c(Nc2ccc(F)cc2[N+](=O)[O-])c1-c1ccc(F)cc1Cl [Compound 111, 4-(2-chloro-4-fluorophenyl)-N-(4-fluoro-2-nitrophenyl)-1,3-dimethyl-1H-pyrazol-5-amine]
pest or weed control at 50 ppm (Septoria tritici): 100%
pest or weed control at 50 ppm [1]: 99%
pest or weed control at 50 ppm [2]: 99%
pest or weed control at 50 ppm (Phakopsora pachyrhizi): 0%
pest or weed control at 50 ppm (Botrytis cinerea): 100%
pest or weed control at 50 ppm (Alternaria solani): 93%

Cc1cc(F)c(Nc2c(-c3ccc(Cl)cc3Cl)c(C)nn2C)c([N+](=O)[O-])c1 [Compound 143]
Test A disease control rating (wheat leaf blotch) (Septoria tritici): 99%
Test B disease control rating (wheat leaf rust) [1]: 100%
Test C disease control rating (wheat powdery mildew) [2]: 96%
Test D disease control rating (Asian soybean rust) (Phakopsora pachyrhizi): 87%
Test E disease control rating (tomato Botrytis) (Botrytis cinerea): 99%
Test F disease control rating (tomato early blight) (Alternaria solani): 100%

Cc1cc(Cl)c(Nc2c(-c3c(F)cccc3Cl)c(C)nn2C)c([N+](=O)[O-])c1 [Compound 24]
Test A disease control rating (wheat leaf blotch) (Septoria tritici): 100%
Test B disease control rating (wheat leaf rust) [1]: 89%
Test C disease control rating (wheat powdery mildew) [2]: 0%
Test D disease control rating (Asian soybean rust) (Phakopsora pachyrhizi): 0%
Test E disease control rating (tomato Botrytis) (Botrytis cinerea): 97%
Test F disease control rating (tomato early blight) (Alternaria solani): 0%

Cc1nn(C)c(Nc2c(F)cc(F)cc2[N+](=O)[O-])c1-c1ccc(F)cc1F [Compound 58]
Test A disease control rating (wheat leaf blotch) (Septoria tritici): 100%
Test B disease control rating (wheat leaf rust) [1]: 100%
Test C disease control rating (wheat powdery mildew) [2]: 99%
Test D disease control rating (Asian soybean rust) (Phakopsora pachyrhizi): 36%
Test E disease control rating (tomato Botrytis) (Botrytis cinerea): 99%
Test F disease control rating (tomato early blight) (Alternaria solani): 99%

Cc1nn(C)c(Nc2c(Cl)cc(F)cc2[N+](=O)[O-])c1-c1c(F)cccc1F [Compound 76]
Test A disease control rating (wheat leaf blotch) (Septoria tritici): 100%
Test B disease control rating (wheat leaf rust) [1]: 99%
Test C disease control rating (wheat powdery mildew) [2]: 95%
Test D disease control rating (Asian soybean rust) (Phakopsora pachyrhizi): 25%
Test E disease control rating (tomato Botrytis) (Botrytis cinerea): 87%
Test F disease control rating (tomato early blight) (Alternaria solani): 0%

CCc1nn(C)c(Nc2c(F)cc(F)cc2[N+](=O)[O-])c1-c1ccc(F)cc1Cl [Compound 95]
Test A disease control rating (wheat leaf blotch) (Septoria tritici): 100%
Test B disease control rating (wheat leaf rust) [1]: 100%
Test C disease control rating (wheat powdery mildew) [2]: 100%
Test D disease control rating (Asian soybean rust) (Phakopsora pachyrhizi): 84%
Test E disease control rating (tomato Botrytis) (Botrytis cinerea): 99%
Test F disease control rating (tomato early blight) (Alternaria solani): 99%

Cc1nn(C)c(Nc2c(F)cc(F)cc2[N+](=O)[O-])c1-c1ccc(F)cc1Cl [Compound 109]
Test A disease control rating (wheat leaf blotch) (Septoria tritici): 100%
Test B disease control rating (wheat leaf rust) [1]: 100%
Test C disease control rating (wheat powdery mildew) [2]: 100%
Test D disease control rating (Asian soybean rust) (Phakopsora pachyrhizi): 93%
Test E disease control rating (tomato Botrytis) (Botrytis cinerea): 100%
Test F disease control rating (tomato early blight) (Alternaria solani): 99%

Cc1nn(C)c(Nc2c(F)cc(Cl)cc2[N+](=O)[O-])c1-c1ccc(F)cc1F [Compound 102]
Test A disease control rating (wheat leaf blotch) (Septoria tritici): 100%
Test B disease control rating (wheat leaf rust) [1]: 100%
Test C disease control rating (wheat powdery mildew) [2]: 100%
Test D disease control rating (Asian soybean rust) (Phakopsora pachyrhizi): 48%
Test E disease control rating (tomato Botrytis) (Botrytis cinerea): 99%
Test F disease control rating (tomato early blight) (Alternaria solani): 99%

COc1ccc(-c2c(C)nn(C)c2Nc2c(Cl)cc(Cl)cc2[N+](=O)[O-])c(Cl)c1 [Compound 65]
Test A disease control rating (wheat leaf blotch) (Septoria tritici): 94%
Test B disease control rating (wheat leaf rust) [1]: 89%
Test C disease control rating (wheat powdery mildew) [2]: 56%
Test D disease control rating (Asian soybean rust) (Phakopsora pachyrhizi): 66%
Test E disease control rating (tomato Botrytis) (Botrytis cinerea): 16%
Test F disease control rating (tomato early blight) (Alternaria solani): 46%

Cc1nn(C)c(Nc2ccc(F)cc2[N+](=O)[O-])c1-c1c(Cl)cccc1Cl [Compound 54]
Test A disease control rating (wheat leaf blotch) (Septoria tritici): 100%
Test B disease control rating (wheat leaf rust) [1]: 91%
Test C disease control rating (wheat powdery mildew) [2]: 93%
Test D disease control rating (Asian soybean rust) (Phakopsora pachyrhizi): 0%
Test E disease control rating (tomato Botrytis) (Botrytis cinerea): 21%
Test F disease control rating (tomato early blight) (Alternaria solani): 0%

Cc1ccc(Nc2c(-c3c(F)cccc3F)c(C)nn2C)c([N+](=O)[O-])c1 [Compound 105]
Test A disease control rating (wheat leaf blotch) (Septoria tritici): 99%
Test B disease control rating (wheat leaf rust) [1]: 74%
Test C disease control rating (wheat powdery mildew) [2]: 86%
Test D disease control rating (Asian soybean rust) (Phakopsora pachyrhizi): 0%
Test E disease control rating (tomato Botrytis) (Botrytis cinerea): 73%
Test F disease control rating (tomato early blight) (Alternaria solani): 0%

Cc1nn(C)c(Nc2c(Br)cccc2[N+](=O)[O-])c1-c1ccc(C#N)cc1Cl [Compound 125]
Test A disease control rating (wheat leaf blotch) (Septoria tritici): 100%
Test B disease control rating (wheat leaf rust) [1]: 96%
Test C disease control rating (wheat powdery mildew) [2]: 0%
Test D disease control rating (Asian soybean rust) (Phakopsora pachyrhizi): 0%
Test E disease control rating (tomato Botrytis) (Botrytis cinerea): 99%
Test F disease control rating (tomato early blight) (Alternaria solani): 9%

Cc1nn(C)c(Nc2c(Cl)cccc2[N+](=O)[O-])c1-c1ccc(F)cc1F [Compound 79]
Test A disease control rating (wheat leaf blotch) (Septoria tritici): 100%
Test B disease control rating (wheat leaf rust) [1]: 100%
Test C disease control rating (wheat powdery mildew) [2]: 91%
Test D disease control rating (Asian soybean rust) (Phakopsora pachyrhizi): 44%
Test E disease control rating (tomato Botrytis) (Botrytis cinerea): 98%
Test F disease control rating (tomato early blight) (Alternaria solani): 0%

Cc1nn(C)c(Nc2c(F)cc(Cl)cc2[N+](=O)[O-])c1-c1ccc(F)cc1Cl [Compound 121, N-(4-chloro-2-fluoro-6-nitrophenyl)-4-(2-chloro-4-fluorophenyl)-1,3-dimethyl-1H-pyrazol-5-amine]
pest or weed control at 50 ppm (Septoria tritici): 100%
pest or weed control at 50 ppm [1]: 100%
pest or weed control at 50 ppm [2]: 100%
pest or weed control at 50 ppm (Phakopsora pachyrhizi): 99%
pest or weed control at 50 ppm (Botrytis cinerea): 100%
pest or weed control at 50 ppm (Alternaria solani): 100%

COc1cc(F)c(-c2c(C)nn(C)c2Nc2c(Cl)cccc2[N+](=O)[O-])c(F)c1 [Compound 160]
Test A disease control rating (wheat leaf blotch) (Septoria tritici): 98%
Test B disease control rating (wheat leaf rust) [1]: 100%
Test C disease control rating (wheat powdery mildew) [2]: 96%
Test D disease control rating (Asian soybean rust) (Phakopsora pachyrhizi): 86%
Test E disease control rating (tomato Botrytis) (Botrytis cinerea): 100%
Test F disease control rating (tomato early blight) (Alternaria solani): 99%

Cc1cc(Cl)cc([N+](=O)[O-])c1Nc1c(-c2ccc(F)cc2Cl)c(C)nn1C [Compound 33]
Test A disease control rating (wheat leaf blotch) (Septoria tritici): 100%
Test B disease control rating (wheat leaf rust) [1]: 100%
Test C disease control rating (wheat powdery mildew) [2]: 99%
Test D disease control rating (Asian soybean rust) (Phakopsora pachyrhizi): 92%
Test E disease control rating (tomato Botrytis) (Botrytis cinerea): 99%
Test F disease control rating (tomato early blight) (Alternaria solani): 85%

C#CCOc1ccc(Nc2c(-c3ccc(F)cc3Cl)c(C)nn2C)c([N+](=O)[O-])c1 [Compound 5]
Test A disease control rating (wheat leaf blotch) (Septoria tritici): 97%
Test B disease control rating (wheat leaf rust) [1]: 86%
Test C disease control rating (wheat powdery mildew) [2]: 76%
Test D disease control rating (Asian soybean rust) (Phakopsora pachyrhizi): 19%
Test E disease control rating (tomato Botrytis) (Botrytis cinerea): 95%
Test F disease control rating (tomato early blight) (Alternaria solani): 0%

COc1cc(F)c(Nc2c(-c3ccc(F)cc3Br)c(C)nn2C)c([N+](=O)[O-])c1 [Compound 165]
Test A disease control rating (wheat leaf blotch) (Septoria tritici): 99%
Test B disease control rating (wheat leaf rust) [1]: 100%
Test C disease control rating (wheat powdery mildew) [2]: 98%
Test D disease control rating (Asian soybean rust) (Phakopsora pachyrhizi): 94%
Test E disease control rating (tomato Botrytis) (Botrytis cinerea): 100%
Test F disease control rating (tomato early blight) (Alternaria solani): 100%

Cc1nn(C)c(Nc2ccccc2[N+](=O)[O-])c1-c1ccc(F)cc1Br [Compound 139]
Test A disease control rating (wheat leaf blotch) (Septoria tritici): 98%
Test B disease control rating (wheat leaf rust) [1]: 86%
Test C disease control rating (wheat powdery mildew) [2]: 76%
Test D disease control rating (Asian soybean rust) (Phakopsora pachyrhizi): 0%
Test E disease control rating (tomato Botrytis) (Botrytis cinerea): 100%
Test F disease control rating (tomato early blight) (Alternaria solani): 33%

Cc1nn(C)c(Nc2c(F)cccc2[N+](=O)[O-])c1-c1ccc(C#N)cc1Cl [Compound 113, 3-chloro-4-[5-[(2-fluoro-6-nitrophenyl)amino]-1,3-dimethyl-1H-pyrazol-4-yl]benzonitrile]
pest or weed control at 50 ppm (Septoria tritici): 100%
pest or weed control at 50 ppm [1]: 99%
pest or weed control at 50 ppm [2]: 97%
pest or weed control at 50 ppm (Phakopsora pachyrhizi): 13%
pest or weed control at 50 ppm (Botrytis cinerea): 99%
pest or weed control at 50 ppm (Alternaria solani): 99%

From US12398107B2, “Fungicidal nitroanilino substituted pyrazoles” (FMC Corporation, priority 2018, dated 2025)
